These results are taken from US20210060016A1, “ANTICANCER AGENT” (JAPANESE FOUNDATION FOR CANCER RESEARCH, priority 2017, published 2021).

The target in one assay is T1, tankyrase 2 (Homo sapiens, UniProt Q9H2K2).
T1 construct: tankyrase 2 (613-1, 116aa, ANK5+SAM+PARP); made in house; host or cells: cell-free protein expression system
In words: Tankyrase inhibitory activity test (ELISA, auto-poly(ADP-ribosyl)ation), TNKS2. The conditions noted are these: Flag-tagged tankyrase 2 (ANK5+SAM+PARP), read-out: TNKS2 (inhibitory activity against tankyrase 2), IC50 rating. It is filed as biochemical. As for the experimental part:
The enzymatic activity of tankyrase 1 and the enzymatic activity of tankyrase 2 were measured by the ELISA method based on assessment of auto-poly(ADP-ribosyl)ation to evaluate the tankyrase inhibitory activity of the compound prepared in each of Compound Examples (test compound) (inhibitory activity against tankyrase 1 (TNKS1) and inhibitory activity against tankyrase 2 (TNKS2)). First, Flag-tagged tankyrase 1 (1,024-1, 327aa, SAM+PARP) and tankyrase 2 (613-1, 116aa, ANK5+SAM+PARP) were synthesized with a cell-free protein expression system, and diluted with a Tris buffer solution (50 mM Tris-HCl (pH 8.0), 150 mM NaCl, 10% glycerol). 50 μL of the diluted tankyrase 1 or tankyrase 2 was added to a plate with an anti-FLAG M2 monoclonal antibody immobilized thereon (Anti-FLAG High-Sensitivity M2-Coated Plate) (Sigma-Aldrich), and the mixture was left to stand overnight at 4° C. Thereafter, the plate was washed four times with a PBS (PBST) buffer containing 0.1% TritonX-100.
Subsequently, the test compound diluted with an assay buffer (50 mM Tris-HCl (pH 8.0), 4 mM MgCl2, 0.2 mM DTT) (DMSO was used as a control) was added to each well of the plate, and the mixture was left to stand at room temperature for 10 minutes. Thereafter, a biotin-labeled NAD solution (225 μM NAD, 25 μM 6-Biotin-17-NAD (Travigen, Inc.)) was added and mixed as a donor substrate, and the mixture was reacted at 30° C. for 45 minutes. To blank wells was added distilled water instead of the biotin-labeled NAD solution. After the reaction, the plate was washed with a PBST buffer four times. Thereafter, HRP (horseradish peroxidase)-labeled streptavidin (Travigen, Inc.) was diluted with a PBS buffer by 1,000 times, and added to each well, and the mixture was reacted at room temperature for 20 minutes. The plate was washed with a PBST buffer four times, a chemiluminescent substrate solution TACS-Sapphire (Travigen, Inc.) was then added to each well, the mixture was reacted at room temperature for 20 minutes, and thechemiluminescence intensity was measured using a chemiluminescence measuring apparatus.
The residual enzymatic activity in the presence of the test compound was determined from the following expression. On the basis of the residual enzymatic activity at each of multiple concentrations of the test compound, the enzyme inhibitory activity was calculated in terms of a 50%-inhibition concentration (IC50 value) using data analysis software Origin (LightStone Corp.). Residual activity (%)={(chemiluminescence intensity with test compound added)−(chemiluminescence intensity of blank)}/{(chemiluminescence intensity of control)−(chemiluminescence intensity of blank))
Background: An ELISA detects its analyte on a solid surface through an enzyme-linked reagent.

Assay [1] relates to human colorectal cancer cell line COLO-320DM. In words: Cell proliferation inhibitory activity test (Celltiter-Glo). The conditions noted are these: 96 hours, read-out: COLO-320DM (cell proliferation inhibitory activity), G150 rating. It is filed as cell-based. As for the experimental part:
The cell proliferation inhibitory activity of the compound, which had been prepared in each of Compound Examples, against the human colorectal cancer cell line COLO-320DM was evaluated by Celltiter-Glo Luminescent Cell Viability Assay (Promega Corporation; G7573). COLO-320DM cells were cultured in RPMI-1640 medium containing 2 mM glutamine (Wako Pure Chemical Industries, Ltd; 189-02025) supplemented with 10% fetal bovine serum. The cultured cells were washed with PBS, and then dissociated with trypsin/EDTA, and a cell solution with 3×10^4 cells/mL was prepared.
Subsequently, the cell solution was seeded in a 96-well microplate (Thermo/Nunc Company; 136101) in an amount of 70 μL per well, and cultured overnight under the condition of 37° C. and 5% COz. The next day, a test compound solution obtained by diluting the test compound (DMSO solution) with a cell culture medium (final concentration of DMSO was 1%) was added in an amount of 10 μL per well, and the mixture was reacted under the condition of 37° C. and 5% CO2 for 96 hours (a 1% DMSO solution was used as a control). Thereafter, a Celltiter-Glo Luminescent Cell Viability Assay reagent was added (Promega Corporation; G7573) in an amount of 80 μL per well, the mixture was stirred with a shaker for 2 minutes while light was blocked with an aluminum foil, and the mixture was incubated at room temperature for 10 minutes.
Thereafter, a luminescence signal was measured with a luminometer (Biotech Company; Synergy). The ratio of cell proliferation in each compound addition group to cell proliferation in a control group containing no test compound solution, where cell proliferation in the control group is 100%, was determined, and the value of a compound concentration necessary for suppressing the amount of residual cells to 50% of that in the control (G150) was calculated as the cell proliferation inhibitory activity. For the COLO-320DM (cell proliferation inhibitory activity against COLO-320DM) of each test compound as measured through the above-mentioned method, a test compound having a G150 value of less than 1 μM was rated “A”, a test compound having a G150 value of 1 μM or more and less than 10 μM was rated “B”, a test compound having a G150 value of 10 μM or more was rated “C”, and an unevaluated test compound was designated as “NT”.

T1 sequence (Q9H2K2 613-1166): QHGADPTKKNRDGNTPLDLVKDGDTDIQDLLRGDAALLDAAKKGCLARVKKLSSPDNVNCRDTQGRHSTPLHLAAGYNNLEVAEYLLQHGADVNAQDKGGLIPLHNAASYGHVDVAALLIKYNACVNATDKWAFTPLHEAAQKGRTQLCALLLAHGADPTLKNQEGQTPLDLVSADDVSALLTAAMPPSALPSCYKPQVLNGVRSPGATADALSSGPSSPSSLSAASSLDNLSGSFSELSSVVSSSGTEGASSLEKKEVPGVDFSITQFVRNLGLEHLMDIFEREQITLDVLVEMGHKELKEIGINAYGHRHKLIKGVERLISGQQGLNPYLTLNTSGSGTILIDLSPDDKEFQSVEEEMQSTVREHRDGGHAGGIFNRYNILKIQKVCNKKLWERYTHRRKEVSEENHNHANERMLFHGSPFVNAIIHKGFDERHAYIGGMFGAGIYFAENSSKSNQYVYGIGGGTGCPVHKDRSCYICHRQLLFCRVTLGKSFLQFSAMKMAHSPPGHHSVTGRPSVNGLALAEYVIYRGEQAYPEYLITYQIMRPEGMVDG

Take `COc1ccc(-c2c[nH]nc2C2NC(=O)c3cccc(C)c3N2)cc1` (stereo not shown) [Compound Example 113, 2-[4-(4-Methoxyphenyl)-1H-pyrazol-3-yl]-8-methyl-2,3-dihydro-1H-quinazolin-4-one]: the figures for the IC50 (at tankyrase 2; in assay [1]) were 20 to 200 nM and no less than 10000 nM, respectively.

For `CCOc1ccc(-c2n[nH]nc2[C@H]2NC(=O)c3cccc(C)c3N2)cc1` [Compound Example 101, (2R)-2-[5-(4-Ethoxyphenyl)-2H-1,2,3-triazol-4-yl]-8-methyl-2,3-dihydro-1H-quinazolin-4-one], the IC50 on tankyrase 2 is less than 20 nM; in assay [1], less than 1000 nM.
